The conditions of data set [1]: Crystal; DTA.
Data set [2] can be described thus: Molar enthalpy of transition or fusion. Conditions: Crystal; DSC.

± gives the expanded uncertainty stated by the source.

Take `O=P(O)(c1ccccc1)c1ccccc1` [diphenylphosphinic acid]: in data set [1], the Normal melting temperature came out at 192.97 ± 0.5 °C. The “Molar enthalpy of transition or fusion” value in data set [2] worked out at 5.24 ± 0.155 kcal/mol.
